Converted amounts (≈) assume the structure as drawn. Where two headings read alike, the source gives them in different places.
Columns and labels:
[1] = system: human colon adenocarcinoma (HT29); experiment: MTT cell viability assay, HT29; assay type: cell-based; details: Homo sapiens, HT-29, 72 h; for IC80: 80% growth inhibition; for IC50: read-out: IC50
From the text: (§1) In this study, we employed the MTT (3-(4,5-dimethyl thiazol-2-yl)-2,5-diphenyltetrazolium bromide) colorimetric assay to evaluate the cytotoxic activity of selected abietanes (compounds 5, 7, 13, 17, and 19) against three tumor cell lines: human colon adenocarcinoma (HT29), human hepatocarcinoma (HepG2), and murine melanoma (B16–F10). The MTT assay relied on the conversion of MTT to formazan by viable cells, with the formazan concentration proportional to the number of viable cells. The concentrations required for 50 and 80% growth inhibition (IC50 and IC80) were determined for each compound.
(§2) The human colorectal adenocarcinoma cell line HT29 (ECACC no. 9172201; ATCC no. HTB-38), the human hepatocarcinoma cell line HepG2 (ECACC no. 85011430), the mouse melanoma cells B16–F10 (ATCC no. CRL-6475), and the murine monocyte/macrophage like RAW 264.7 cell line (ATCC no, TIB-71) were obtained from the cell bank of the University of Granada, Spain. The tumor cell lines were cultured in DMEM (Dulbecco’s modified Eagle’s medium) supplemented with 2 mM glutamine, 10% heat-inactivated FCS (fetal calf serum), and 50 μg/mL of gentamicin (for all cancer cell lines). The RAW 264.7 cell line was cultured in RPMI1640 medium, supplemented with 2 mM glutamine, 10% heat-inactivated FCS, and 50 μg/mL of gentamicin. All cell lines were incubated at 37 °C, in an atmosphere of 5% CO2 and 95% humidity. The culture media were changed every 48 h, and the confluent cultures were separated with a trypsin solution (0.25% EDTA). In all experiments, monolayer cells were grown to 80–90% confluence in sterile cell culture flasks.
(§3) The effects of the compounds on the cell viability were established using the MTT method (Sigma, St. Louis, MO, USA). The cytotoxicity of the compounds was assessed by measuring the absorbance of MTT dye staining of metabolically competent cells. The cells were cultivated in 96-well plates at 6.0 × 10^3 cells/mL for the HT29 and RAW 264.7 cell lines, at 5.0 × 10^3 cells/mL for B16–F10 cells, and 15.0 × 10^3 cells/mL for the HepG2 cell line, with a final volume of 200 μL per well being incubated with the different products (0–100 μg/mL). After 72 h, 100 μL of MTT solution (0.5 mg/mL) in 50% of PBS and 50% of the medium was added to each well. Following incubation for 1.5 h, formazan was resuspended in 100 μL of DMSO, and each concentration was tested in triplicate. The cell viability relative to the untreated control cells was determined by measuring the absorbance at 570 nm using an ELISA plate reader (Tecan Sunrise MR20–301, TECAN, Grödig, Austria).

[2] = system: human hepatocarcinoma (HepG2); experiment: MTT cell viability assay, HepG2; assay type: cell-based; details: Homo sapiens; for IC80: 72 h, 80% growth inhibition; for IC50: HepG2, 72 h, read-out: IC50
From the text: as §1, §2, §3

[3] = system: murine melanoma (B16–F10); experiment: MTT cell viability assay, B16-F10; assay type: cell-based; details: Mus musculus, 72 h; for IC80: 80% growth inhibition
From the text: as §1, §2, §3

[4] = RAW 264.7 cell viability (MTT); assay type: cell-based, murine; details: mouse
Protocol: To evaluate the cytotoxic effects of the synthesized abietanes (5, 7, 13, 17, and 19) on RAW 264.7 monocyte/macrophage murine cells and to establish sub-cytotoxic concentrations for anti-inflammatory testing, we conducted cell viability assays using the MTT method. Each compound was tested at increasing concentration levels (0–100 μg/mL), and the IC50 values were determined by interpolation in the sigmoidal cytotoxicity curves (Figure 8). […] Additionally, sub-cytotoxic concentrations corresponding to ¾ IC50, ½ IC50, and ¼ IC50 were determined and selected for subsequent anti-inflammatory assays, ensuring that the observed effects were specifically attributed to the anti-inflammatory properties of the compounds rather than cytotoxicity. The human colorectal adenocarcinoma cell line HT29 (ECACC no. 9172201; ATCC no. HTB-38), the human hepatocarcinoma cell line HepG2 (ECACC no. 85011430), the mouse melanoma cells B16–F10 (ATCC no. CRL-6475), and the murine monocyte/macrophage like RAW 264.7 cell line (ATCC no, TIB-71) were obtained from the cell bank of the University of Granada, Spain. The tumor cell lines were cultured in DMEM (Dulbecco’s modified Eagle’s medium) supplemented with 2 mM glutamine, 10% heat-inactivated FCS (fetal calf serum), and 50 μg/mL of gentamicin (for all cancer cell lines). The RAW 264.7 cell line was cultured in RPMI1640 medium, supplemented with 2 mM glutamine, 10% heat-inactivated FCS, and 50 μg/mL of gentamicin. All cell lines were incubated at 37 °C, in an atmosphere of 5% CO2 and 95% humidity. The culture media were changed every 48 h, and the confluent cultures were separated with a trypsin solution (0.25% EDTA). In all experiments, monolayer cells were grown to 80–90% confluence in sterile cell culture flasks. The effects of the compounds on the cell viability were established using the MTT method (Sigma, St. Louis, MO, USA). The cytotoxicity of the compounds was assessed by measuring the absorbance of MTT dye staining of metabolically competent cells. The cells were cultivated in 96-well plates at 6.0 × 10^3 cells/mL for the HT29 and RAW 264.7 cell lines, at 5.0 × 10^3 cells/mL for B16–F10 cells, and 15.0 × 10^3 cells/mL for the HepG2 cell line, with a final volume of 200 μL per well being incubated with the different products (0–100 μg/mL). After 72 h, 100 μL of MTT solution (0.5 mg/mL) in 50% of PBS and 50% of the medium was added to each well. Following incubation for 1.5 h, formazan was resuspended in 100 μL of DMSO, and each concentration was tested in triplicate. The cell viability relative to the untreated control cells was determined by measuring the absorbance at 570 nm using an ELISA plate reader (Tecan Sunrise MR20–301, TECAN, Grödig, Austria).

[5] = system: NO release in LPS-stimulated RAW 264.7 macrophage cells; experiment: Inhibition of nitric oxide production (Griess nitrite assay) in LPS-activated RAW 264.7 macrophages; assay type: cell-based, murine; details: LPS-stimulated RAW 264.7, 48 h; for NO inhibition: ¾ IC50 concentration; for IC50: Mus musculus, RAW264.7
Protocol: To evaluate the anti-inflammatory activity of the rearranged abietanes (5, 7, 17, and 19) along with their precursor 13, we conducted experiments on RAW 264.7 macrophage cells, a well-known model for screening anti-inflammatory compounds. The macrophages were stimulated with LPS to induce the maximum release of nitric oxide (NO) during the inflammatory response. Subsequently, the different compounds were incubated with the cells at sub-cytotoxic concentrations for 48 h (Figure 9). Next, we determined the concentration of nitrites in the culture medium, which was proportional to the amount of NO release.
Nitrite production was analyzed using the Griess reaction method. The concentration of nitrite was used as an indication of nitric oxide (NO) production. RAW 264.7 cells were seeded at 6 × 10^4 cells/well in 24-well cell culture plates, supplemented with 10 μg/mL of lipopolysaccharide (LPS). […] The Griess reaction was conducted by mixing 150 μL of supernatant test samples or sodium nitrite standard (0–120 μM) with 25 μL of Griess reagent A (0.1% n-(1-naphthyl) ethylenediamine dihydrochloride) and 25 μL of Griess reagent B (1% sulfanilamide in 5% of phosphoric acid) in a 96-well plate. The mixture was incubated at room temperature for 15 min, after which the absorbance was measured at 540 nm using an ELISA plate reader (Tecan Sunrise MR20–301, TECAN, Grödig, Austria). To determine the concentration of nitrite in each sample supernatant, the absorbance was referenced to the nitrite standard curve. To determine the percentage of NO production, the increase between the negative control (untreated cells) and the positive control (cells only with 10 μg/mL of LPS) was assigned 100%.

P388 leukemia cells = system: P388 leukemia cells; parameters: method as in doi:10.1076/phbi.37.2.148.6082; details: cited from earlier work
[6] = system: human leukemia lymphoblastic NALM-6; parameters: method as in PMID 16989306; details: cited from earlier work
[7] = system: promyelocytic HL-60 cells; parameters: method as in PMID 16989306; details: cited from earlier work
human carcinoma KB cells = system: human carcinoma KB cells; parameters: method as in doi:10.1076/phbi.37.1.17.6321; details: cited from earlier work
[8] = parameters: method as in PMID 29772301; details: orthoquinones versus para-quinones; cell lines not given; read-out: cytotoxic activity; cited from earlier work
[9] = RAW 264.7 monocyte/macrophage cells, RAW 264.7, MTT, 0–100 μg/mL, read-out: IC50 (cytotoxicity)

| Compound | IC80 [1] | IC50 [1] | IC80 [2] | IC50 [2] | IC50 [3] | IC80 [3] | IC50 at 72 h [4, 9] | NO inhibition [5] | IC50 [5] | cytotoxicity (P388 leukemia cells) | IC50 at 72 h [4] | IC50 [6] | IC50 [7] | cytotoxic effect (human carcinoma KB cells) | IC50 [8] |
| --- | --- | --- | --- | --- | --- | --- | --- | --- | --- | --- | --- | --- | --- | --- | --- |
| CC(C)=CCCc1c(C)ccc2c1C(=O)C(=O)C(C(C)C)=C2 [Compound 7, saprorthoquinone] | 10.6 ± 0.28 mg/L (≈ 35.8 µM) | 7.82 ± 0.17 mg/L (≈ 26.4 µM) | 29.12 ± 0.21 mg/L (≈ 98.2 µM) | 21.2 ± 2.26 mg/L (≈ 71.4 µM) | 6.89 ± 0.37 mg/L (≈ 23.2 µM) | 8.02 ± 0.52 mg/L (≈ 27.1 µM) | 2.81 ± 0.45 mg/L (≈ 9.48 µM) | 100% | 1.3 ± 0.08 mg/L (≈ 4.39 µM) | strong cytotoxicity | – | – | – | – | – |
| CC(C)c1cc2c(c(O)c1O)C1=CC(=O)CC(C)(C)[C@@]1(C)C=C2 [Compound 17, pygmaeocin C] | 24.4 ± 2.65 mg/L (≈ 78 µM) | 15.3 ± 0.71 mg/L (≈ 48.9 µM) | 73.5 ± 2.06 mg/L (≈ 235 µM) | 38.8 ± 1.55 mg/L (≈ 124 µM) | 10.1 ± 1.81 mg/L (≈ 32.4 µM) | 26.6 ± 4.82 mg/L (≈ 85.2 µM) | – | 91% | 1.73 ± 0.04 mg/L (≈ 5.54 µM) | – | 6.27 ± 0.94 mg/L (≈ 20.1 µM) | – | – | – | – |
| CC(C)C1=CC2=C(C(=O)C1=O)C1=CCCC(C)(C)[C@@]1(C)C=C2 [Compound 19, viridoquinone] | 74.7 ± 1.53 mg/L (≈ 252 µM) | 60.52 ± 0.28 mg/L (≈ 204 µM) | 101 ± 3.47 mg/L (≈ 339 µM) | 76.3 ± 2.14 mg/L (≈ 257 µM) | 6.42 ± 0.35 mg/L (≈ 21.7 µM) | 9.14 ± 0.38 mg/L (≈ 30.8 µM) | 9.29 ± 0.35 mg/L (≈ 31.3 µM) | 100% | 7.21 ± 0.9 mg/L (≈ 24.3 µM) | – | – | – | – | – | – |
| C=C(C)CCCc1c(C)ccc2c1C(=O)C(=O)C(C(C)C)=C2 [aethiopinone] | – | – | – | – | – | – | – | – | – | – | – | 0.6 mg/L (≈ 2.02 µM) | 4.8 mg/L (≈ 16.2 µM) | potent cytotoxic effect | – |
| aegyptinone A | – | – | – | – | – | – | – | – | – | – | – | – | – | – | 2.11 to 8.19 µM |
| tebesinone B | – | – | – | – | – | – | – | – | – | – | – | – | – | – | 5.47 to 10.3 µM |

Reference: publication PMC10487843, “Evaluation of Anticancer and Anti-Inflammatory Activities of Some Synthetic Rearranged Abietanes” (International Journal of Molecular Sciences, 2023)
